Results published in the NIST ThermoML archive (doi:10.1021/je020053r).
± gives the expanded uncertainty stated by the source.

Legend:
[1] = refractive index (Na D-line) (dimensionless); conditions: 293.15 K; 101.33 kPa; Liquid; Standard Abbe refractometry
[2] = 293.15 K; 101.33 kPa; Liquid

refractive index [1]	SMILES	mass density [2]
1.333 ± 0.0007	O [water]	–
–	O=Cc1ccco1 [2-furaldehyde]	1128.5 ± 15 kg/m3
–	CCCCCC [hexane]	659.3 ± 5 kg/m3
